Reference: patent US20170311603A1 (priority 2014, published 2017)

Key:
VvEDS1 = assay: Induction of plant defense gene VvEDS1 in grapevine calli, qRT-PCR (Example 5); format: cell-based, V. vinifera L. cv. Chardonnay; details: 10 mM in MPM1 medium, 4 days of culture; overexpressed when induction ratio ≧4
VvPR1 = assay: Induction of plant defense gene VvPR1 in grapevine calli, qRT-PCR (Example 5); format: cell-based, V. vinifera L. cv. Chardonnay; details: 10 mM in MPM1 medium, 4 days of culture; overexpressed when induction ratio ≧4

| Compound | expression of VvEDS1 gene (VvEDS1) | expression of VvPR1 gene (VvPR1) |
| --- | --- | --- |
| O=C1[O][Bi]([OH])[O]c2ccccc21 [bismuth subsalicylate] | overexpress | overexpress |
| O=C(O)c1ccccc1O [salicylic acid] | overexpress | overexpress |
